In brackets after ≈: the same amount, converted by molar mass. Bridge positions count the residues as written; N and C are the ends. Square brackets hold non-standard residues; d marks the D form. Peptide text beside a SMILES is read from it. I, II: the chains in the order shown. * marks the point of attachment. ξ: configuration not given here. Pentadecanoyl = CCCCCCCCCCCCCCC(=O)*; Lauroyl = CCCCCCCCCCCC(=O)*; Decanoyl = CCCCCCCCCC(=O)*; Octanoyl = CCCCCCCC(=O)*; Hexanoyl = CCCCCC(=O)*; ξK = NCCCCC(N)C(=O)O; Butyryl = CCCC(=O)*
Columns and labels:
Staphylococcus aureus [1] = assay: Antibacterial activity against Staphylococcus aureus ATCC 25923 assessed as reduction in bacterial cell growth incubated for 16 to 24 hrs by CLSI-protocol based Mueller-Hinton Broth micro-dilution method; format: functional; settings: time 16-24 hrs
Bacillus subtilis [2] = assay: Antibacterial activity against Bacillus subtilis ATCC 23857 assessed as reduction in bacterial cell growth incubated for 16 to 24 hrs by CLSI-protocol based Mueller-Hinton Broth micro-dilution method; format: functional; settings: time 16-24 hrs
Escherichia coli [3] = assay: Antibacterial activity against Escherichia coli ATCC 25922 assessed as reduction in bacterial cell growth incubated for 16 to 24 hrs by CLSI-protocol based Mueller-Hinton Broth micro-dilution method; format: functional; settings: time 16-24 hrs
Pseudomonas aeruginosa [4] = assay: Antibacterial activity against Pseudomonas aeruginosa ATCC 27853 assessed as reduction in bacterial cell growth incubated for 16 to 24 hrs by CLSI-protocol based Mueller-Hinton Broth micro-dilution method; format: functional; settings: time 16-24 hrs
Klebsiella pneumoniae [5] = assay: Antibacterial activity against Klebsiella pneumoniae ATCC 700603 assessed as reduction in bacterial cell growth incubated for 16 to 24 hrs by CLSI-protocol based Mueller-Hinton Broth micro-dilution method; format: functional; settings: time 16-24 hrs
Erythrocyte = assay: Hemolytic activity in human erythrocyte incubated for 70 mins by absorbance based assay; format: toxicity, cell-based; settings: 1.167 h
Staphylococcus aureus [6] = assay: Antibacterial activity against Staphylococcus aureus ATCC 25923 assessed as reduction in bacterial cell growth measured for 18 hrs by Mueller-Hinton broth based two-fold serial dilution method; format: functional
Bacillus subtilis [7] = assay: Antibacterial activity against Bacillus subtilis ATCC 23857 assessed as reduction in bacterial cell growth measured for 18 hrs by Mueller-Hinton broth based two-fold serial dilution method; format: functional
Escherichia coli [8] = assay: Antibacterial activity against Escherichia coli ATCC 25922 assessed as reduction in bacterial cell growth measured for 18 hrs by Mueller-Hinton broth based two-fold serial dilution method; format: functional
Pseudomonas aeruginosa [9] = assay: Antibacterial activity against Pseudomonas aeruginosa ATCC 27853 assessed as reduction in bacterial cell growth measured for 18 hrs by Mueller-Hinton broth based two-fold serial dilution method; format: functional
Klebsiella pneumoniae [10] = assay: Antibacterial activity against Klebsiella pneumoniae ATCC 700603 assessed as reduction in bacterial cell growth measured for 18 hrs by Mueller-Hinton broth based two-fold serial dilution method; format: functional

Compound `CCCC(=O)NCC(=O)N[C@@H](CC(C)C)C(=O)N[C@@H](CC(C)C)C(=O)N[C@@H](CCCCN)C(=O)N[C@@H](CCCNC(=N)N)C(=O)N[C@H](C(=O)N[C@@H](CCCCN)C(=O)N[C@H](C(=O)N[C@@H](CC(C)C)C(=O)N[C@@H](CC(C)C)C(=O)NCCCCC(NC(=O)[C@H](CC(C)C)NC(=O)[C@H](CC(C)C)NC(=O)[C@@H](NC(=O)[C@H](CCCCN)NC(=O)[C@@H](NC(=O)[C@H](CCCNC(=N)N)NC(=O)[C@H](CCCCN)NC(=O)[C@H](CC(C)C)NC(=O)[C@H](CC(C)C)NC(=O)CNC(=O)CCC)[C@@H](C)CC)[C@@H](C)O)C(N)=O)[C@@H](C)O)[C@@H](C)CC` (some centres not stated) (I: Butyryl-GLLKRIKTLL[ξK]-NH2 / II: Butyryl-GLLKRIKTLL; amide I:11-II:C) has an MIC (Staphylococcus aureus [1]) of 8 µM (≈ 20.5 µg/mL), an MIC (Bacillus subtilis [2]) of 4 µM (≈ 10.2 µg/mL) and an MIC (Escherichia coli [3]) of 4 µM (≈ 10.2 µg/mL). It also gave an MIC (Pseudomonas aeruginosa [4]) of 8 µM (≈ 20.5 µg/mL), an MIC (Klebsiella pneumoniae [5]) of 8 µM (≈ 20.5 µg/mL) and an HC10 (Erythrocyte) of 27.61 µM.

For `CCCC(=O)NCC(=O)N[C@@H](CC(C)C)C(=O)N[C@@H](CC(C)C)C(=O)N[C@@H](CCCCN)C(=O)N[C@@H](CCCNC(=N)N)C(=O)N[C@H](C(=O)N[C@@H](CCCCN)C(=O)N[C@H](C(=O)N[C@@H](CC(C)C)C(=O)N[C@@H](CC(C)C)C(N)=O)[C@@H](C)O)[C@@H](C)CC` (Butyryl-GLLKRIKTLL-NH2), the MIC (Staphylococcus aureus [1]) was 256 µM (≈ 313 µg/mL), the MIC (Bacillus subtilis [2]) was 256 µM (≈ 313 µg/mL) and the MIC (Escherichia coli [3]) was 256 µM (≈ 313 µg/mL). For the same compound, the MIC (Pseudomonas aeruginosa [4]) was 64 µM (≈ 78.3 µg/mL), the MIC (Klebsiella pneumoniae [5]) was 256 µM (≈ 313 µg/mL) and the HC10 (Erythrocyte) was greater than 256 µM.

Compound `CCCCCCCC(=O)NCC(=O)N[C@@H](CC(C)C)C(=O)N[C@@H](CC(C)C)C(=O)N[C@@H](CCCCN)C(=O)N[C@@H](CCCNC(=N)N)C(=O)N[C@H](C(=O)N[C@@H](CCCCN)C(=O)N[C@H](C(=O)N[C@@H](CC(C)C)C(=O)N[C@@H](CC(C)C)C(=O)NCCCCC(NC(=O)[C@H](CC(C)C)NC(=O)[C@H](CC(C)C)NC(=O)[C@@H](NC(=O)[C@H](CCCCN)NC(=O)[C@@H](NC(=O)[C@H](CCCNC(=N)N)NC(=O)[C@H](CCCCN)NC(=O)[C@H](CC(C)C)NC(=O)[C@H](CC(C)C)NC(=O)CNC(=O)CCCCCCC)[C@@H](C)CC)[C@@H](C)O)C(N)=O)[C@@H](C)O)[C@@H](C)CC` (some centres not stated) (I: Octanoyl-GLLKRIKTLL[ξK]-NH2 / II: Octanoyl-GLLKRIKTLL; amide I:11-II:C) has an MIC (Staphylococcus aureus [1]) of 64 µM (≈ 171 µg/mL), an MIC (Bacillus subtilis [2]) of 32 µM (≈ 85.5 µg/mL) and an MIC (Escherichia coli [3]) of 16 µM (≈ 42.7 µg/mL). For the same compound, the MIC (Pseudomonas aeruginosa [4]) was 128 µM (≈ 342 µg/mL), the MIC (Klebsiella pneumoniae [5]) was 32 µM (≈ 85.5 µg/mL) and the HC10 (Erythrocyte) was 5.67 µM.

“I: Lauroyl-GLLKRIKTLL[ξK][ξK]-NH2 / II: Lauroyl-GLLKRIKTLL[ξK] / III: Lauroyl-GLLKRIKTLL / IV: Lauroyl-GLLKRIKTLL (amide I:11-IV:C, I:12-II:C, II:11-III:C)” showed an MIC (Staphylococcus aureus [1]) of 256 µM, an MIC (Bacillus subtilis [2]) of 256 µM and an MIC (Escherichia coli [3]) of 125 µM. For the same compound, the MIC (Pseudomonas aeruginosa [4]) was 256 µM, the MIC (Klebsiella pneumoniae [5]) was 256 µM and the HC10 (Erythrocyte) was 210.92 µM.

In the case of “I: Decanoyl-GLLKRIKTLL[ξK][ξK]-NH2 / II: Decanoyl-GLLKRIKTLL[ξK] / III: Decanoyl-GLLKRIKTLL / IV: Decanoyl-GLLKRIKTLL (amide I:11-IV:C, I:12-II:C, II:11-III:C)”, the MIC (Staphylococcus aureus [1]) is reported as 256 µM, the MIC (Bacillus subtilis [2]) is reported as 256 µM and the MIC (Escherichia coli [3]) is reported as 256 µM. It also gave an MIC (Pseudomonas aeruginosa [4]) of 256 µM, an MIC (Klebsiella pneumoniae [5]) of 256 µM and an HC10 (Erythrocyte) of 12.51 µM.

Work on `CCCCCC(=O)NCC(=O)N[C@@H](CC(C)C)C(=O)N[C@@H](CC(C)C)C(=O)N[C@@H](CCCCN)C(=O)N[C@@H](CCCNC(=N)N)C(=O)N[C@H](C(=O)N[C@@H](CCCCN)C(=O)N[C@H](C(=O)N[C@@H](CC(C)C)C(=O)N[C@@H](CC(C)C)C(=O)NCCCCC(NC(=O)[C@H](CC(C)C)NC(=O)[C@H](CC(C)C)NC(=O)[C@@H](NC(=O)[C@H](CCCCN)NC(=O)[C@@H](NC(=O)[C@H](CCCNC(=N)N)NC(=O)[C@H](CCCCN)NC(=O)[C@H](CC(C)C)NC(=O)[C@H](CC(C)C)NC(=O)CNC(=O)CCCCC)[C@@H](C)CC)[C@@H](C)O)C(N)=O)[C@@H](C)O)[C@@H](C)CC` (some centres not stated) (I: Hexanoyl-GLLKRIKTLL[ξK]-NH2 / II: Hexanoyl-GLLKRIKTLL; amide I:11-II:C) yielded an MIC (Staphylococcus aureus [1]) of 8 µM (≈ 20.9 µg/mL), an MIC (Bacillus subtilis [2]) of 8 µM (≈ 20.9 µg/mL) and an MIC (Escherichia coli [3]) of 4 µM (≈ 10.5 µg/mL). The MIC (Pseudomonas aeruginosa [4]) was 16 µM (≈ 41.8 µg/mL), the MIC (Klebsiella pneumoniae [5]) was 8 µM (≈ 20.9 µg/mL) and the HC10 (Erythrocyte) was 6.08 µM.

“I: H-GLLKRIKTLL[ξK][ξK]-NH2 / II: H-GLLKRIKTLL[ξK] / III: H-GLLKRIKTLL / IV: H-GLLKRIKTLL (amide I:11-IV:C, I:12-II:C, II:11-III:C)” showed an MIC (Staphylococcus aureus [1]) of 8 µM, an MIC (Bacillus subtilis [2]) of 8 µM and an MIC (Escherichia coli [3]) of 8 µM. The MIC (Pseudomonas aeruginosa [4]) was 8 µM, the MIC (Klebsiella pneumoniae [5]) was 16 µM and the HC10 (Erythrocyte) was 1.31 µM.

`CCCCCCCCCCCCCCC(=O)NCC(=O)N[C@@H](CC(C)C)C(=O)N[C@@H](CC(C)C)C(=O)N[C@@H](CCCCN)C(=O)N[C@@H](CCCNC(=N)N)C(=O)N[C@H](C(=O)N[C@@H](CCCCN)C(=O)N[C@H](C(=O)N[C@@H](CC(C)C)C(=O)N[C@@H](CC(C)C)C(N)=O)[C@@H](C)O)[C@@H](C)CC` (Pentadecanoyl-GLLKRIKTLL-NH2) showed an MIC (Staphylococcus aureus [6]) of 16 µM (≈ 22 µg/mL), an MIC (Bacillus subtilis [7]) of 8 µM (≈ 11 µg/mL) and an MIC (Escherichia coli [8]) of 16 µM (≈ 22 µg/mL). It also gave an MIC (Pseudomonas aeruginosa [9]) of 16 µM (≈ 22 µg/mL) and an MIC (Klebsiella pneumoniae [10]) of 32 µM (≈ 44.1 µg/mL).
